Measurements taken from patent US12171755B2, “PAPD5 inhibitors and methods of use thereof” (Children's Medical Center Corporation, priority 2017, dated 2024).

Target: T1, PAPD5 (Homo sapiens, UniProt Q8NDF8)
T1 construct: made in house
Test: High-throughput luminescence (KinaseGlo) RNA polyadenylation assay, ATP utilization by recombinant PAPD5
Assay type: biochemical
Details: for Fold-change determined at compound concentration 33 μM / Fold-change determined at compound concentration 100 μM / Fold-change determined at compound concentration 10 μM: Table 4 (entries of Table 5), ratio of luminescence with inhibitor to DMSO; for Fold-change determined at compound concentration 33 μM: 33 μM compound; for Fold-change determined at compound concentration 100 μM: higher = higher inhibition; for Fold-change determined at compound concentration 10 μM: 10 μM compound
Experimental: Optimal conditions for an in vitro RNA polyadenylation assay using recombinant PAPD5, ATP and an oligonucleotide substrate were identified. The HTS assay involved ATP utilization by PAPD5, which reads out as a decreased luminescence signal produced by luciferase (KinaseGlo, Promega, Madison, WI).
100 nl of compound dissolved in DMSO was transferred to each well of the assay plate via pin transfer. For negative control wells, DMSO alone was added. Plates were gently vortexed for 5 seconds, then incubated for 2 hours at room temperature.
After 2 hours, 5 ul of luciferase (Promega KinaseGlo, Madison, WI) was added using a MultiDrop Combi (Thermo Fisher Scientific, Waltham, MA). The mixture was gently vortexed for 5 seconds and incubated for 10 minutes at room temperature. Plates were spun for 1 minute prior to luminescence measurements. Luminescent measurements were quantitated using a PerkinElmer EnVision™ plate reader.
˜100,000 compounds from various libraries at the ICCB-Longwood were screened in this manner in duplicate.
The fold change was the ratio of luminescence from a sample with inhibitor compared to that with DMSO. Thus, a higher number indicates higher inhibition.

T1 sequence (Q8NDF8 68-698 isoform Q8NDF8-5): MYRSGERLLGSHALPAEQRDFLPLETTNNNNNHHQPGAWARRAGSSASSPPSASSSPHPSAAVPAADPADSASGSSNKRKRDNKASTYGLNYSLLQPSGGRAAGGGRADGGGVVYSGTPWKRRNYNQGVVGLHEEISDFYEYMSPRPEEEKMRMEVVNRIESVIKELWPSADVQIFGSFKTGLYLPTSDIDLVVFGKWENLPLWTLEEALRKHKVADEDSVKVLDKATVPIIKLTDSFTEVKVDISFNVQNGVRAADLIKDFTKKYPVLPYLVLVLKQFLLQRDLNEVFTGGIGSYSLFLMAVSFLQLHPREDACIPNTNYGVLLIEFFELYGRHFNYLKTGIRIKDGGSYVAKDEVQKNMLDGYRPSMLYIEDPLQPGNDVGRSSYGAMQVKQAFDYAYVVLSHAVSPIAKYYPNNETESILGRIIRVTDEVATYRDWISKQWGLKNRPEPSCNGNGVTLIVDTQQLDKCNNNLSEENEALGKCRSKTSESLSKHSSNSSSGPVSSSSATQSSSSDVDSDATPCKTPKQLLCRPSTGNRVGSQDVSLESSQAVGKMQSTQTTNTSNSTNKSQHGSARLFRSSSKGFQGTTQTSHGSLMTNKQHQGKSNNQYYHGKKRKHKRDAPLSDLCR

**Q.** What does the source list for “3-{7-Oxo-2.8.10- triazatricyclo[7.4.0.02,6]trideca- 1(13),3,5,9,11-pentaen-8-yl}propionic acid [Entry 68]”?
**A.** Fold-change determined at compound concentration 33 μM: 1.162; Fold-change determined at compound concentration 100 μM (100 μM compound): 1.389

**Q.** Which “Fold-change determined at compound concentration 33 μM” value does the source give for CC(C)C(CO)Nc1nc(Nc2ccc(C(=O)O)c(Cl)c2)c2ncn(C(C)C)c2n1 (stereo in doubt) [Entry 46, 2-chloro-4-[[2-[[(2R)-1-hydroxy-3-methylbutan-2-yl]amino]-9-propan-2-ylpurin-6-yl]amino]benzoic acid] here?
**A.** 1.079

**Q.** And the “Fold-change determined at compound concentration 100 μM” value (100 μM compound)?
**A.** 1.328

**Q.** With O=C(O)C1CC(=O)N(Cc2ccc3c(c2)OCO3)C1 (stereo not shown) [1-(1,3-benzodioxol-5-ylmethyl)-5-oxopyrrolidine-3-carboxylic acid] as the compound, how does the “fold change at 100 μM concentration in the assay” value (100 μM compound) read?
**A.** 3.9

**Q.** Which results are given for Cc1csc(-c2cc(S(=O)(=O)Nc3cc(C)nc4ccccc34)c(C)s2)n1 [Entry 29, 2-methyl-N-(2-methylquinolin-4-yl)-5-(4-methyl-1,3-thiazol-2-yl)thiophene-3-sulfonamide]?
**A.** Fold-change determined at compound concentration 33 μM: 1.073; Fold-change determined at compound concentration 100 μM (100 μM compound): 1.22

**Q.** What does the source list for Nc1c2ccccc2nc2ccccc12 [Entry 30, acridin-9-amine]?
**A.** Fold-change determined at compound concentration 33 μM: 1.313; Fold-change determined at compound concentration 100 μM (100 μM compound): 1.944

**Q.** With CCCCN(C)c1cc(C(=O)O)c2cc(NC(=O)c3ccccc3OC)ccc2n1 [Entry 31, 2-[butyl(methyl)amino]-6-[(2-methoxybenzoyl)amino]quinoline-4-carboxylic acid] as the compound, how does the “Fold-change determined at compound concentration 33 μM” value read?
**A.** 1.304

**Q.** What about the “Fold-change determined at compound concentration 100 μM” value (100 μM compound) of the same compound?
**A.** 1.895

**Q.** How did the “Fold-change determined at compound concentration 33 μM” value turn out when O=C(O)c1cccc(Nc2ncnc3ccc(Br)cc23)c1 [Entry 32, 3-[(6-bromoquinazolin-4-yl)amino]benzoic acid] was run?
**A.** 1.114

**Q.** And the “Fold-change determined at compound concentration 100 μM” value (100 μM compound)?
**A.** 1.236

**Q.** What does the source list for Nc1nc(N2CCCC2)nc2ccccc12 [Entry 33, 2-(1-pyrrolidinyl)-4-quinazolinamine]?
**A.** Fold-change determined at compound concentration 33 μM: 1.175; Fold-change determined at compound concentration 100 μM (100 μM compound): 1.505

**Q.** What does the source list for OCCN(CCO)c1nc(N2CCCCC2)c2nc(N(CCO)CCO)nc(N3CCCCC3)c2n1 [Entry 34, 2,2′,2″,2″′-((4,8-Di(piperidin-1-yl)pyrimido[5,4-d]pyrimidine-2,6-diyl)bis(azanetriyl))tetraethanol]?
**A.** Fold-change determined at compound concentration 33 μM: 1.098; Fold-change determined at compound concentration 100 μM (100 μM compound): 1.212

**Q.** O=C(O)C1CCCN(c2ncnc3c2oc2ccccc23)C1 (stereo not shown) [Entry 35, 1-[1]benzofuro[3,2-d]pyrimidin-4-ylpiperidine-3-carboxylic acid] was tested. Which “Fold-change determined at compound concentration 33 μM” value did it give?
**A.** 1.04

**Q.** What about the “Fold-change determined at compound concentration 100 μM” value (100 μM compound) of the same compound?
**A.** 1.287

**Q.** Which “Fold-change determined at compound concentration 33 μM” value does the source give for O=C(NCc1ccncc1)C1CCCN(c2ncnc3c2oc2ccccc23)C1 (stereo not shown) [Entry 36, 1-([1]benzofuro[3,2-d]pyrimidin-4-yl)-N-(pyridin-4-ylmethyl)piperidine-3-carboxamide] here?
**A.** 1.096

**Q.** What about the “Fold-change determined at compound concentration 100 μM” value (100 μM compound) of the same compound?
**A.** 1.239

**Q.** With O=C(NCc1ccccn1)C1CCCN(c2ncnc3c2oc2ccccc23)C1 (stereo not shown) [Entry 37, 1-([1]benzofuro[3,2-d]pyrimidin-4-yl)-N-(pyridin-2-ylmethyl)piperidine-3-carboxamide] as the compound, how does the “Fold-change determined at compound concentration 33 μM” value read?
**A.** 1.077

**Q.** What about the “Fold-change determined at compound concentration 100 μM” value (100 μM compound) of the same compound?
**A.** 1.218

**Q.** For Cc1ccc(-n2c(N3CCCC(C(=O)O)C3)nc3ccsc3c2=O)cc1 (stereo not shown) [Entry 38, 1-[3-(4-methylphenyl)-4-oxo-3,4-dihydrothieno[3,2-d]pyrimidin-2-yl]piperidine-3-carboxylic acid], which “Fold-change determined at compound concentration 33 μM” value is on record?
**A.** 1.207

**Q.** And the “Fold-change determined at compound concentration 100 μM” value (100 μM compound)?
**A.** 1.631

**Q.** What does the source list for O=C(O)C1CCCN(c2nc3c(-c4ccccc4)csc3c(=O)[nH]2)C1 (stereo not shown) [Entry 39, 1-(4-oxo-7-phenyl-3,4-dihydrothieno[3,2-d]pyrimidin-2-yl)piperidine-3-carboxylic acid]?
**A.** Fold-change determined at compound concentration 33 μM: 1.19; Fold-change determined at compound concentration 100 μM (100 μM compound): 1.527

**Q.** How did the “Fold-change determined at compound concentration 33 μM” value turn out when COc1ccc(Nc2ncnc3sc(C(=O)O)c(C)c23)cc1OC [Entry 40, 4-(3,4-dimethoxyanilino)-5-methylthieno[2,3-d]pyrimidine-6-carboxylic acid] was run?
**A.** 1.589

**Q.** And the “Fold-change determined at compound concentration 100 μM” value (100 μM compound)?
**A.** 2.956

**Q.** c1cc(CNc2ncnc3sc4c(c23)CCCC4)ccn1 [Entry 41, N-(pyridin-4-ylmethyl)-5,6,7,8-tetrahydro[1]benzothieno[2,3-d]pyrimidin-4-amine] was tested. Which “Fold-change determined at compound concentration 10 μM” value did it give?
**A.** 1.249

**Q.** What about the “Fold-change determined at compound concentration 33 μM” value of the same compound?
**A.** 1.621

**Q.** What about the “Fold-change determined at compound concentration 100 μM” value (100 μM compound) of the same compound?
**A.** 2.279

**Q.** With COc1ccc(-c2nc(N3CCOCC3)c3sc(CN(C)c4ncc(C(=O)NO)cn4)cc3n2)cn1 [Entry 42, N-hydroxy-2-[[2-(6-methoxypyridin-3-yl)-4-morpholin-4-ylthieno[3,2-d]pyrimidin-6-yl]methyl-methylamino]pyrimidine-5-carboxamide] as the compound, how does the “Fold-change determined at compound concentration 10 μM” value read?
**A.** 1.382

**Q.** What about the “Fold-change determined at compound concentration 33 μM” value of the same compound?
**A.** 1.905

**Q.** What about the “Fold-change determined at compound concentration 100 μM” value (100 μM compound) of the same compound?
**A.** 2.528

**Q.** What does the source list for NC(=O)C1CCN(c2ncnc3sc4c(c23)CCCC4)CC1 [Entry 43, 1-(5,6,7,8-tetrahydro[1]benzothieno[2,3-d]pyrimidin-4-yl)piperidine-4-carboxamide]?
**A.** Fold-change determined at compound concentration 10 μM: 1.292; Fold-change determined at compound concentration 33 μM: 1.648; Fold-change determined at compound concentration 100 μM (100 μM compound): 2.294

**Q.** With NC(=O)C1CCN(c2nc3c(S(=O)(=O)c4ccccc4)nnn3c3ccsc23)CC1 [Entry 44, 1-(3-(phenylsulfonyl)thieno[2,3-e][1,2,3]triazol[1,5-a]pyrimidin-5-yl)piperidine-4-carboxamide] as the compound, how does the “Fold-change determined at compound concentration 33 μM” value read?
**A.** 1.273

**Q.** What about the “Fold-change determined at compound concentration 100 μM” value (100 μM compound) of the same compound?
**A.** 1.651

**Q.** Which “Fold-change determined at compound concentration 33 μM” value does the source give for c1cc(CNc2nc(C3CC3)nc3c2CCC3)ccn1 [Entry 45, N-(2-cyclopropyl-6,7-dihydro-5H-cyclopenta[d]pyrimidin-4-yl)-N-(4-pyridylmethyl)amine] here?
**A.** 1.429

**Q.** And the “Fold-change determined at compound concentration 100 μM” value (100 μM compound)?
**A.** 1.936

**Q.** For CC(C)n1cnc2c(Nc3ccc(C(=O)O)cc3)nc(Cl)nc21 [Entry 47, 4-[(2-chloro-9-propan-2-ylpurin-6-yl)amino]benzoic acid], which “Fold-change determined at compound concentration 33 μM” value is on record?
**A.** 1.095

**Q.** And the “Fold-change determined at compound concentration 100 μM” value (100 μM compound)?
**A.** 1.393

**Q.** With O=S(=O)(Nc1ccc2nncn2n1)c1ccc(Br)cc1 [Entry 49, 4-bromo-N-([1,2,4]triazolo[4,3-b]pyridazin-6-yl)benzenesulfonamide] as the compound, how does the “Fold-change determined at compound concentration 33 μM” value read?
**A.** 1.105

**Q.** And the “Fold-change determined at compound concentration 100 μM” value (100 μM compound)?
**A.** 1.318

**Q.** Which “Fold-change determined at compound concentration 33 μM” value does the source give for CC(C)c1nnc2ccc(N3CCN(C)CC3)nn12 [Entry 50, 3-isopropyl-6-(4-methylpiperazino)[1,2,4]triazolo[4,3-b]pyridazine] here?
**A.** 1.336

**Q.** And the “Fold-change determined at compound concentration 100 μM” value (100 μM compound)?
**A.** 2.083

**Q.** For O=S(=O)(Nc1ccc2nnc(-c3ccccc3)n2n1)c1ccc(Cl)cc1 [Entry 51, 4-chloro-N-(3-phenyl-[1,2,4]triazolo[4,3-b]pyridazin-6-yl)benzenesulfonamide], which “Fold-change determined at compound concentration 33 μM” value is on record?
**A.** 1.242

**Q.** What about the “Fold-change determined at compound concentration 100 μM” value (100 μM compound) of the same compound?
**A.** 1.825

**Q.** Which results are given for Clc1ccc(Nc2nnc(Cc3ccncc3)c3ccccc23)cc1 [Entry 52, N-(4-chlorophenyl)-4-(pyridin-4-ylmethyl)phthalazin-1-amine]?
**A.** Fold-change determined at compound concentration 33 μM: 1.133; Fold-change determined at compound concentration 100 μM (100 μM compound): 1.275

**Q.** How did the “Fold-change determined at compound concentration 33 μM” value turn out when CCOC(=O)C1CCN(c2nnc(Cc3ccncc3)c3ccccc23)CC1 [Entry 53, Ethyl 1-[4-(pyridin-4-ylmethyl)phthalazin-1-yl]piperidine-4-carboxylate] was run?
**A.** 1.308

**Q.** And the “Fold-change determined at compound concentration 100 μM” value (100 μM compound)?
**A.** 1.807

**Q.** With Cc1ccc(-c2nnc(Nc3ccc(OCC(N)=O)cc3)c3ccccc23)cc1S(=O)(=O)N(C)C [Entry 54, 2-[4-({4-[3-(dimethylsulfamoyl)-4-methylphenyl]phthalazin-1-yl}amino)phenoxy]acetamide] as the compound, how does the “Fold-change determined at compound concentration 33 μM” value read?
**A.** 1.324

**Q.** And the “Fold-change determined at compound concentration 100 μM” value (100 μM compound)?
**A.** 1.562

**Q.** Which results are given for c1ccc(CC2CCN(c3nnc(Cc4ccncc4)c4ccccc34)CC2)cc1 [Entry 55, 1-(4-benzylpiperidin-1-yl)-4-(pyridin-4-ylmethyl)phthalazine]?
**A.** Fold-change determined at compound concentration 33 μM: 1.262; Fold-change determined at compound concentration 100 μM (100 μM compound): 1.592
